Measurements from patent publication US10308649B2, “Compounds and methods to suppress autoimmune response” (Oregon State University, priority 2014, dated 2019).

Experiments:
NOD mice = assay: Flow cytometry of leukocyte composition of pancreas, PLN and spleen of NOD mice; format: in vivo, mouse
Method: The leukocyte composition of the pancreas and draining lymph nodes was analyzed at 12, 15, and 20 weeks of age using flow cytometry. Mice were sacrificed at 12, 15, and 20 weeks of age, draining lymph nodes and pancreata were excised, and single cell suspensions were prepared for analysis with flow cytometry. Fc receptors were blocked with rat immunoglobulin G (IgG) acquired from Jackson ImmunoResearch. The cells were stained with the following antibodies: CD4 (RM4, eBioscience), CD8 (53-6.7, eBioscience), CD19 (1D3, eBioscience), CD45 (30-F11, BD Biosciences), Foxp3 (FJK-16s, eBioscience), Nrp1 (3DS304M, eBioscience), CD25 (PC61.5, eBioscience), RORγt (AFKJS-9, eBioscience). For intracellular staining, cells were fixed and permeabilized using a Foxp3 Fixation/Permeabilization buffer acquired from eBioscience (San Diego, Calif.). Data were acquired using a FC-500 flow cytometer (BECKMAN COULTER) and compensated and analyzed using FLOWJO software. Fluorescence minus one (FMO) controls were used for setting gates for analysis.
FIGS. 3a-3f illustrate results comparing the leukocyte composition of the vehicle treated NOD mice to the ARHL1 treated NOD mice from FIG. 2b. The leukocyte composition of the vehicle treated NOD mice to the ARHL1 treated NOD mice was analyzed at 12 weeks of age. Student's t-test was used for analysis. Sample size of n=5-9 mice per group was used. A single asterisk (*) signifies p≤0.05; a double asterisk (**) signifies p≤0.01; a triple asterisk (***) signifies p≤0.001.
FIGS. 4a-4t illustrate results comparing leukocyte composition of draining lymph nodes in vehicle treated, AHRL1 treated, and TCDD treated NOD mice at 12, 15, and 20 weeks of age. Seven-week-old NOD mice were treated with vehicle, AHRL1, or TCDD as described with reference to FIG. 2b. At 12 weeks of age, 15 weeks of age, and 20 weeks of age, the draining lymph nodes were excised from the mice and stained with CD4 antibodies and Foxp3 antibodies. The results were analyzed by flow cytometry and plotted as average +/−standard deviation (s.d.). A sample size of n=5-9 mice per group was used. A single asterisk (*) signifies p≤0.05.

donor CD4+ T cells = assay: Acute graft versus host model: Treg phenotype of alloactivated donor CD4+ T cells; format: in vivo, mouse; conditions: B6D2F1 hosts, day 2
Method: FIGS. 14a-14i show AHRL1 induces an AhR-dependent Treg phenotype by a mechanism that is mediated by the AhR in donor CD4+ T cells. The AhR-induced Tregs were identified as the CD4+CD25+CTLA-4+CD62L^low population of T cells. To determine if AHRL1 induced changes in donor CD4+ T cells, AHRL1 was compared with TCDD and the vehicle. On day 0, B6D2F1 host mice in groups of 5 were injected with CFSE-labeled C57BL/6 (H-2^b/b) T cells and given 15 mg/kg of AHRL1, 15 μg/kg of TCDD, or vehicle by i.p. injection. At 24 hours, an additional dose of 7 mg/kg of AHRL1 or vehicle was given. Mice that were treated with TCDD at the time of donor cell transfer were used as positive controls. Splenocytes were isolated on day 2 for phenotypic analysis of the alloresponsive (CFSE-diluted) donor CD4+ T cells. Splenocytes were harvested from the host mice and the CD4+ T cells were identified by flow cytometry.
On day 0, B6D2F1 host mice in groups of 5 were injected with donor T cells obtained from AhR^+/+ or AhR-deficient (AhR^−/−) C57BL/6 mice. Host mice were treated with 2 mg/kg of AHRL1 or vehicle immediately following donor cell transfer and again at 24 hours. […] Thus, the AhR in the CD4+ T cell is the primary target driving the AhR-Treg phenotype.
On day 0, B6D2F1 host mice in groups of 3-5 were injected with C57BL/6 T cells. Mice were immediately treated with 0 mg/kg, 0.4 mg/kg, 2 mg/kg, or 10 mg/kg of AHRL1 and again on day 1. On day 2, expression of markers associated with the AhR-Treg phenotype increased as the dose of AHRL1 increased. Further, dosing generally correlated with degree of activation of AhR as reflected by CYP1A1, CYP1B1, and AHRR expression in lymph nodes from the same mice. The asterisk (*) indicates a p-value of 0.05 relative to vehicle treatment.
FIGS. 16c and 16d show expression of phenotypic markers, CD25+ICOS+CD62L^low and CD25+CTLA-4+, associated with AhR-Tregs in mice treated with AHRL1. Host mice were treated with 10 mg/kg of AHRL1, 11-Cl-BBQ analog, or vehicle on day 0 and day 1 following donor cell transfer. On day 2, the alloactivated CD4+ donor T cells were identified based on CFSE dilution. The percentage of donor cells in each group expressing the Treg markers were derived from flow histograms. The data represents mean±SEM of 5 mice per treatment. […] Analog 1 is statistically different from AHRL1 and analog 4 (p-value=0.05). […], analog 1, and analog 4 are shown to be AhR ligands that are capable of inducing Tregs in vivo. Accordingly, analogs 1 and 4 are expected to have a similar therapeutic effect in a subject as AHRL1 by suppressing an autoimmune response. Additionally, analog 6, analog 7, and other analogs of 11-Cl-BBQ, that are found to be active AhR ligands using the disclosed screening method, are expected to induce Tregs and suppress CTL to provide treatment and/or prevention of immune-mediated diseases.

B6D2F1 host mice = assay: 15-day GVHD model in B6D2F1 host mice; format: in vivo, mouse
Method: GVHD was established using donor cells obtained from wild type or AhR-deficient mice. B6D2F1 host mice were injected with wild type (WT) or AhR^−/− splenocytes to initiate the graft versus host (GVH) response. Due to a limited number of AhR-deficient mice available, whole splenocytes rather than purified T cells were used to initiate the GVH response. Host mice were given AHRL1 or vehicle treatments daily for 15 days. The vehicle consisted of a mixture of 6.7% anisole and peanut oil. A single loading dose of 10 mg/kg AHRL1 was given at the time of donor cell injection and a maintenance dose of 2 mg/kg AHRL1 was given every day thereafter until termination of the experiment on day 15.
The progression of GVHD in the host mice was monitored and a clinical GVHD pathology score was calculated. At termination of the 15-day study, each animal was evaluated and given a clinical GVHD pathology score based on five criteria: changes in weight, posture, activity, fur texture, and mortality. The clinical GVHD pathology score was assessed on a scale of 0 to 3, where 0 was normal, 1 was moderate morbidity, 2 was severe morbidity, and 3 was death.
In a separate study, the effect of AHRL1 on donor cell engraftment was examined and directly compared with the effect of TCDD. B6D2F1 host mice in groups of 6 were injected with splenocytes from C57Bl/6 mice to initiate the GVH response, and treated with AHRL1 or vehicle daily for 15 days. The vehicle consisted of a mixture of 6.7% anisole and peanut oil. A single loading dose of 10 mg/kg AHRL1 was given at the time of donor cell injection and a maintenance dose of 2 mg/kg AHRL1 was given every day thereafter until termination of the experiment on day 15. 15 μg/kg of TCDD was given to an additional group of 6 mice on day 0 as a positive control. […] The donor cells were identified in the host spleen as the H-2D^d negative population.

[1] = in humans; cited from earlier work
CYP1A1 = CYP1A1 mRNA induction in Hepa-1 cells; conditions: 1 nM
Method: The levels of CYP1A1 expression were determined by measuring CYP1A1 messenger ribonucleic acid (mRNA) levels.

For Clc1cc2c(cc1Cl)Oc1cc(Cl)c(Cl)cc1O2 [TCDD, 2,3,7,8-tetrachlorodibenzo-p-dioxin], the “percentage of CD4+Foxp3- cells that were Nrp1+” value (NOD mice; NOD.Foxp3WT mice, 20 weeks of age) was “decrease”, the “percentage of Foxp3+ cells gated on CD4+ cells” value (“percentage of Foxp3+ cells gated” below) (NOD mice; PLN, 12 weeks of age) was “higher percentage” and the “percentage of Foxp3+ cells gated” value (NOD mice; PLN, 15 weeks of age) was “higher percentage”. The “percentage of Foxp3+ cells gated” value (NOD mice; PLN, 20 weeks of age) was “higher percentage”, the “percentage of Foxp3+ cells gated” value (NOD mice; spleen, 12 weeks of age, vs vehicle) was “higher percentage” and the “percentage of Foxp3+ cells gated” value (NOD mice; spleen, 15 weeks of age, vs vehicle) was “higher percentage”. The “percentage of Foxp3+ cells gated” value (NOD mice; spleen, 20 weeks of age, vs vehicle) was “higher percentage”, the “total number of alloactivated CD4+CD25+ T cells co-expressing CTLA-4+, ICOS, low CD62L” value (donor CD4+ T cells) was “increased” and the “expression of ICOS on alloactivated donor CD4+ T cells” value (donor CD4+ T cells; AHRL1 15 mg/kg then 7 mg/kg, TCDD 15 μg/kg i.p.) was “significantly increased”. For the same molecule, the “total number of donor CD4+ and CD8+ T cells engrafted in the host spleen” value (B6D2F1 host mice; day 15, AHRL1 10 mg/kg then 2 mg/kg daily, TCDD 15 μg/kg day 0) was “reduced total number”, the “percentage and number of activated donor CD8+ T cells expressing a CTL phenotype (CD8+CD44hiCD45RBlow)” value (B6D2F1 host mice; host spleen, day 15) was “reduce the percentage and number” and the “percentage and number of host B cells (CD19+ cells)” value (B6D2F1 host mice; host spleen, day 15, vs vehicle) was “increased percentage and number”. For the same molecule, the half-life [1] was “approximately seven” and the “CYP1A1 mRNA induction” value (CYP1A1) was “comparable level of induction”.
